Test results: patent US20040006070A1, “Intraspinal continuous infusion of midazolam hydrochloride for the treatment of pain” (priority 2002, published 2004)
Where a name gives a salt, the structure may show the parent alone.

Assay: Bloodwork: complete blood count, electrolytes, extended blood chemistry
Format: in vivo, sheep
Conditions: for Total Bili: ref 0.14-0.32; for Creatinine: ref 1-2.7; for Albumin: ref 2.4-3; for K+: ref 3.9-5.4; for Phos: ref 5-7.3; for Total Prot: ref 6-7.9
Method: Indirect blood pressure, pulse recording, pain testing (mechanical stimulus device, cold and warm water baths see description in procedure) and weight were taken on days 1, 3, 7, 15, 22, 29, 36, and 43. Venous blood samples (15 ml drawn from the jugular vein with Vacutainer brand blood collection tubes) for complete blood count, electrolytes, and extended blood chemistry were drawn on days 1, 15, and 43 (mild procedure only light hand restraint necessary).

For `Cc1ncc2n1-c1ccc(Cl)cc1C(c1ccccc1F)=NC2` [Midazolam, midazolam hydrochloride], the AST (sheep #473, 3 mg/day, Day 1) was 239 U/L, the “Alk Phos” value (sheep #473, 3 mg/day, Day 1) was 41 U/L and the BUN (sheep #473, 3 mg/day, Day 1) was 10 mg/dL. For the same molecule, the CPK (sheep #473, 3 mg/day, Day 1) was 392 U/L, the Cholesterol (sheep #473, 3 mg/day, Day 1) was 72 mg/dL and the “Differential Count: Eosin” value (sheep #473, 3 mg/day, Day 1) was 1%. For the same molecule, the “Differential Count: Lymph” value (sheep #473, 3 mg/day, Day 1) was 39%, the “Differential Count: Mono” value (sheep #473, 3 mg/day, Day 1) was 1% and the “Differential Count: Seg” value (sheep #473, 3 mg/day, Day 1) was 59%. For the same molecule, the “Gamma GT” value (sheep #473, 3 mg/day, Day 1) was 69 U/L, the Glucose (sheep #473, 3 mg/day, Day 1) was 91 mg/dL and the Hct (sheep #473, 3 mg/day, Day 1) was 33.0%. The Hgb (sheep #473, 3 mg/day, Day 1) was 11.3 g/dL, the MCH (sheep #473, 3 mg/day, Day 1) was 9.7 pg and the MCHC (sheep #473, 3 mg/day, Day 1) was 32.2 G/dl. For the same molecule, the MCV (sheep #473, 3 mg/day, Day 1) was 30.0 fL, the “Na+” value (sheep #473, 3 mg/day, Day 1) was 153 mEq/l and the “Platlet Count” value (sheep #473, 3 mg/day, Day 1) was 666000 µL⁻¹. For the same molecule, the RBC (sheep #473, 3 mg/day, Day 1) was 1.1e+07 µL⁻¹, the WBC (sheep #473, 3 mg/day, Day 1) was 5800 µL⁻¹ and the “Total Bili” value (sheep #473, 3 mg/day, Day 1) was 0.2 mg/dL. The Creatinine (sheep #473, 3 mg/day, Day 1) was 1.0 mg/dL, the Albumin (sheep #473, 3 mg/day, Day 1) was 3.4 g/dL and the “K+” value (sheep #473, 3 mg/day, Day 1) was 4.4 mEq/l. The Phos (sheep #473, 3 mg/day, Day 1) was 6.9 mg/dL, the “Total Prot” value (sheep #473, 3 mg/day, Day 1) was 6.5 g/dL and the ALT (sheep #473, 3 mg/day, Day 15) was 1 U/L. The AST (sheep #473, 3 mg/day, Day 15) was 85 U/L, the “Alk Phos” value (sheep #473, 3 mg/day, Day 15) was 59 U/L and the BUN (sheep #473, 3 mg/day, Day 15) was 10 mg/dL. The CPK (sheep #473, 3 mg/day, Day 15) was 98 U/L, the Cholesterol (sheep #473, 3 mg/day, Day 15) was 79 mg/dL and the “Differential Count: Eosin” value (sheep #473, 3 mg/day, Day 15) was 6%. For the same molecule, the “Differential Count: Lymph” value (sheep #473, 3 mg/day, Day 15) was 53%, the “Differential Count: Mono” value (sheep #473, 3 mg/day, Day 15) was 1% and the “Differential Count: Seg” value (sheep #473, 3 mg/day, Day 15) was 40%. For the same molecule, the “Gamma GT” value (sheep #473, 3 mg/day, Day 15) was 59 U/L, the Glucose (sheep #473, 3 mg/day, Day 15) was 74 mg/dL and the Hct (sheep #473, 3 mg/day, Day 15) was 41.0%. For the same molecule, the Hgb (sheep #473, 3 mg/day, Day 15) was 12.9 g/dL, the MCH (sheep #473, 3 mg/day, Day 15) was 9.3 pg and the MCHC (sheep #473, 3 mg/day, Day 15) was 31.5 G/dl. For the same molecule, the MCV (sheep #473, 3 mg/day, Day 15) was 29.6 fL, the “Na+” value (sheep #473, 3 mg/day, Day 15) was 152 mEq/l and the “Platlet Count” value (sheep #473, 3 mg/day, Day 15) was 336000 µL⁻¹. For the same molecule, the RBC (sheep #473, 3 mg/day, Day 15) was 1.25e+07 µL⁻¹, the WBC (sheep #473, 3 mg/day, Day 15) was 5100 µL⁻¹ and the “Total Bili” value (sheep #473, 3 mg/day, Day 15) was 0.1 mg/dL. For the same molecule, the Creatinine (sheep #473, 3 mg/day, Day 15) was 1.2 mg/dL, the Albumin (sheep #473, 3 mg/day, Day 15) was 3.7 g/dL and the “K+” value (sheep #473, 3 mg/day, Day 15) was 4.6 mEq/l. For the same molecule, the Phos (sheep #473, 3 mg/day, Day 15) was 5.8 mg/dL, the “Total Prot” value (sheep #473, 3 mg/day, Day 15) was 6.7 g/dL and the ALT (sheep #473, 3 mg/day, Day 43) was 8 U/L. For the same molecule, the AST (sheep #473, 3 mg/day, Day 43) was 61 U/L, the “Alk Phos” value (sheep #473, 3 mg/day, Day 43) was 73 U/L and the BUN (sheep #473, 3 mg/day, Day 43) was 15 mg/dL. The CPK (sheep #473, 3 mg/day, Day 43) was 82 U/L, the Cholesterol (sheep #473, 3 mg/day, Day 43) was 78 mg/dL and the “Differential Count: Eosin” value (sheep #473, 3 mg/day, Day 43) was 2%. For the same molecule, the “Differential Count: Lymph” value (sheep #473, 3 mg/day, Day 43) was 60%, the “Differential Count: Mono” value (sheep #473, 3 mg/day, Day 43) was 2% and the “Differential Count: Seg” value (sheep #473, 3 mg/day, Day 43) was 36%. The “Gamma GT” value (sheep #473, 3 mg/day, Day 43) was 58 U/L, the Glucose (sheep #473, 3 mg/day, Day 43) was 59 mg/dL and the Hct (sheep #473, 3 mg/day, Day 43) was 41.5%. The Hgb (sheep #473, 3 mg/day, Day 43) was 12.9 g/dL, the MCH (sheep #473, 3 mg/day, Day 43) was 9.4 pg and the MCHC (sheep #473, 3 mg/day, Day 43) was 31.1 G/dl. For the same molecule, the MCV (sheep #473, 3 mg/day, Day 43) was 30.2 fL, the “Na+” value (sheep #473, 3 mg/day, Day 43) was 150 mEq/l and the “Platlet Count” value (sheep #473, 3 mg/day, Day 43) was 263000 µL⁻¹. The RBC (sheep #473, 3 mg/day, Day 43) was 1.373e+07 µL⁻¹, the WBC (sheep #473, 3 mg/day, Day 43) was 3400 µL⁻¹ and the “Total Bili” value (sheep #473, 3 mg/day, Day 43) was 0.0 mg/dL. For the same molecule, the Creatinine (sheep #473, 3 mg/day, Day 43) was 1.5 mg/dL, the Albumin (sheep #473, 3 mg/day, Day 43) was 3.4 g/dL and the “K+” value (sheep #473, 3 mg/day, Day 43) was 5.6 mEq/l. The Phos (sheep #473, 3 mg/day, Day 43) was 5.3 mg/dL, the “Total Prot” value (sheep #473, 3 mg/day, Day 43) was 6.4 g/dL and the ALT (sheep #498, 10 mg/day, Day 1) was 8.0 U/L. For the same molecule, the AST (sheep #498, 10 mg/day, Day 1) was 95 U/L, the “Alk Phos” value (sheep #498, 10 mg/day, Day 1) was 45 U/L and the BUN (sheep #498, 10 mg/day, Day 1) was 9.0 Mg/dl. The CPK (sheep #498, 10 mg/day, Day 1) was 89 U/L, the Cholesterol (sheep #498, 10 mg/day, Day 1) was 63 Mg/dl and the “Differential Count: Atyp lym” value (sheep #498, 10 mg/day, Day 1) was 2%. The “Differential Count: Baso” value (sheep #498, 10 mg/day, Day 1) was 1%, the “Differential Count: Lymph” value (sheep #498, 10 mg/day, Day 1) was 28% and the “Differential Count: Mono” value (sheep #498, 10 mg/day, Day 1) was 1%. The “Differential Count: Seg” value (sheep #498, 10 mg/day, Day 1) was 68%, the “Gamma GT” value (sheep #498, 10 mg/day, Day 1) was 74 U/L and the Glucose (sheep #498, 10 mg/day, Day 1) was 131 mg/dL. For the same molecule, the Hct (sheep #498, 10 mg/day, Day 1) was 31.0%, the Hgb (sheep #498, 10 mg/day, Day 1) was 11.1 g/dL and the MCH (sheep #498, 10 mg/day, Day 1) was 9.6 pg. For the same molecule, the MCHC (sheep #498, 10 mg/day, Day 1) was 32.0 g/dL, the MCV (sheep #498, 10 mg/day, Day 1) was 30.1 fL and the “Na+” value (sheep #498, 10 mg/day, Day 1) was 151 mEq/l. For the same molecule, the “Platlet Count” value (sheep #498, 10 mg/day, Day 1) was 592000 µL⁻¹, the RBC (sheep #498, 10 mg/day, Day 1) was 1.153e+07 µL⁻¹ and the WBC (sheep #498, 10 mg/day, Day 1) was 6000 µL⁻¹. For the same molecule, the “Total Bili” value (sheep #498, 10 mg/day, Day 1) was 0.2 mg/dL, the Creatinine (sheep #498, 10 mg/day, Day 1) was 1.6 mg/dL and the Albumin (sheep #498, 10 mg/day, Day 1) was 3.9 g/dL. For the same molecule, the “K+” value (sheep #498, 10 mg/day, Day 1) was 4.4 mEq/l, the Phos (sheep #498, 10 mg/day, Day 1) was 3.8 Mg/dl and the “Total Prot” value (sheep #498, 10 mg/day, Day 1) was 6.4 g/dL. For the same molecule, the ALT (sheep #498, 10 mg/day, Day 15) was 7.0 U/L, the AST (sheep #498, 10 mg/day, Day 15) was 86 U/L and the “Alk Phos” value (sheep #498, 10 mg/day, Day 15) was 87 U/L. It also gave a BUN (sheep #498, 10 mg/day, Day 15) of 16 Mg/dl, a CPK (sheep #498, 10 mg/day, Day 15) of 154 U/L and a Cholesterol (sheep #498, 10 mg/day, Day 15) of 63 Mg/dl. For the same molecule, the “Differential Count: Bands” value (sheep #498, 10 mg/day, Day 15) was 8%, the “Differential Count: Lymph” value (sheep #498, 10 mg/day, Day 15) was 66% and the “Differential Count: Mono” value (sheep #498, 10 mg/day, Day 15) was 3%. For the same molecule, the “Differential Count: Seg” value (sheep #498, 10 mg/day, Day 15) was 23%, the “Gamma GT” value (sheep #498, 10 mg/day, Day 15) was 90 U/L and the Glucose (sheep #498, 10 mg/day, Day 15) was 78 mg/dL. For the same molecule, the Hct (sheep #498, 10 mg/day, Day 15) was 44.8%, the Hgb (sheep #498, 10 mg/day, Day 15) was 13.3 g/dL and the MCH (sheep #498, 10 mg/day, Day 15) was 9.2 pg. For the same molecule, the MCHC (sheep #498, 10 mg/day, Day 15) was 29.7 g/dL, the MCV (sheep #498, 10 mg/day, Day 15) was 31.1 fL and the “Na+” value (sheep #498, 10 mg/day, Day 15) was 151 mEq/l. For the same molecule, the “Platlet Count” value (sheep #498, 10 mg/day, Day 15) was 42000 µL⁻¹, the RBC (sheep #498, 10 mg/day, Day 15) was 1.439e+07 µL⁻¹ and the WBC (sheep #498, 10 mg/day, Day 15) was 8600 µL⁻¹. For the same molecule, the “Total Bili” value (sheep #498, 10 mg/day, Day 15) was 0.1 mg/dL, the Creatinine (sheep #498, 10 mg/day, Day 15) was 1.8 mg/dL and the Albumin (sheep #498, 10 mg/day, Day 15) was 3.4 g/dL. For the same molecule, the “K+” value (sheep #498, 10 mg/day, Day 15) was 5.1 mEq/l, the Phos (sheep #498, 10 mg/day, Day 15) was 6.4 Mg/dl and the “Total Prot” value (sheep #498, 10 mg/day, Day 15) was 6.7 g/dL. For the same molecule, the ALT (sheep #498, 10 mg/day, Day 43) was 8.0 U/L, the AST (sheep #498, 10 mg/day, Day 43) was 89 U/L and the “Alk Phos” value (sheep #498, 10 mg/day, Day 43) was 87 U/L. For the same molecule, the BUN (sheep #498, 10 mg/day, Day 43) was 13 Mg/dl, the CPK (sheep #498, 10 mg/day, Day 43) was 203 U/L and the Cholesterol (sheep #498, 10 mg/day, Day 43) was 67 Mg/dl. For the same molecule, the “Differential Count: Eosin” value (sheep #498, 10 mg/day, Day 43) was 3%, the “Differential Count: Lymph” value (sheep #498, 10 mg/day, Day 43) was 63% and the “Differential Count: Mono” value (sheep #498, 10 mg/day, Day 43) was 1%. For the same molecule, the “Differential Count: Seg” value (sheep #498, 10 mg/day, Day 43) was 33%, the “Gamma GT” value (sheep #498, 10 mg/day, Day 43) was 65 U/L and the Glucose (sheep #498, 10 mg/day, Day 43) was 77 mg/dL. For the same molecule, the Hct (sheep #498, 10 mg/day, Day 43) was 34.7% and the Hgb (sheep #498, 10 mg/day, Day 43) was 10.5 g/dL.
